Test results reported in ChEMBL document CHEMBL1143666 (J Med Chem, 2007).

Key:
MCF7 = assay: Antiproliferative activity against human MCF7 cells by MTS assay; assay type: functional, cell-based
Heat shock protein HSP90 [1] = target: T1, Heat shock protein HSP90 (Homo sapiens, UniProt P07900+P08238); conditions: mcf7
Description: Inhibition of human recombinant HSP90 in MCF7 cells assessed as Her2 degradation

Heat shock protein HSP90 [2] = target: T1, Heat shock protein HSP90; conditions: mcf7; remark: listed apart in the source
Description: Binding affinity to human recombinant HSP90 in MCF7 cell lysates assessed as inhibition of biotinylated-geldanamycin binding

BT-474 = assay: Antiproliferative activity against human BT474 cells by MTS assay; assay type: functional, cell-based
HT-29 = assay: Antiproliferative activity against human HT29 cells; assay type: functional, cell-based
RPTEC [3] = assay: Antiproliferative activity against human RPTEC; assay type: cell-based
RPTEC [4] = assay: Selectivity index, ratio of IC50 for human RPTEC cells to IC50 for HT29 cells; assay type: functional, cell-based
RPTEC [5] = assay: Selectivity index, ratio of IC50 for human RPTEC cells to IC50 for MCF7 cells; assay type: functional, cell-based
Heat shock protein HSP90 [6] = target: T1, Heat shock protein HSP90
Description: Binding affinity to human recombinant HSP90 assessed as inhibition of biotinylated-geldanamycin binding

Heat shock protein HSP90 [7] = target: T1, Heat shock protein HSP90; conditions: ndf
Description: Binding affinity to HSP90 in human NDF cell lysates assessed as inhibition of biotinylated-geldanamycin binding

Heat shock protein HSP90 [8] = target: T1, Heat shock protein HSP90; conditions: mcf7; remark: listed apart in the source
Description: Selectivity for HSP90 in MCF7 cells over HSP90 in NDF cells

[9] = Aqueous solubility of the compound; assay type: physicochemical; conditions: aqueous medium
[10] = Solubility in mouse serum at pH 7.4; assay type: ADME, cell-free
Liver microsomes = assay: Metabolic stability in human liver microsomes; assay type: ADME, Microsome
[11] = Solubility in simulated intestinal fluid at pH 6.5; assay type: physicochemical
[12] = AUC in BALB/c mouse at 100 mg/kg, po; assay type: ADME, organism-based; design: dose 100 mg/kg, route oral; conditions: plasma
[13] = Cmax in BALB/c mouse at 100 mg/kg, po; assay type: ADME, organism-based; design: dose 100 mg/kg, route oral; conditions: in vivo
[14] = Solubility in simulated gastric fluid at pH 2.0; assay type: physicochemical
[15] = Half life in BALB/c mouse at 100 mg/kg, po; assay type: ADME, organism-based; design: dose 100 mg/kg, route oral; conditions: in vivo
NCI-N87 [16] = assay: Antitumor activity in human N87 cells xenografted mouse assessed as tumor growth inhibition at 60 mg/kg, po administered weekly 5-day-on and 2-day-off schedule for 5 weeks; assay type: functional; conditions: read-out: TGI
[17] = Tmax in BALB/c mouse at 100 mg/kg, po; assay type: ADME, organism-based; design: dose 100 mg/kg, route oral; conditions: in vivo
NCI-N87 [18] = assay: Antitumor activity in human N87 cells xenografted mouse assessed as tumor growth inhibition at 125 mg/kg, po administered weekly 5-day-on and 2-day-off schedule for 5 weeks; assay type: functional; conditions: read-out: TGI
NCI-N87 [19] = assay: Antitumor activity in human N87 cells xenografted mouse assessed as tumor growth inhibition at 90 mg/kg, ip administered weekly 5-day-on and 2-day-off schedule for 5 weeks; assay type: functional; conditions: route intraperitoneal, read-out: TGI

## C#CCCCn1c(Cc2cc(OC)c(OC)c(OC)c2Cl)nc2c(N)nc(F)nc21
MCF7
  IC50: 1.2 µM

## Cc1cnc(Cn2cnc3c(Cl)nc(N)nc32)c(C)c1[N+](=O)[O-]
Heat shock protein HSP90 [1]
  IC50: 1 µM

## Cc1cnc(Cn2cnc3c(Cl)nc(N)nc32)c(C)c1N
Heat shock protein HSP90 [1]
  IC50: 5.8 µM

## Cc1cnc(Cn2cnc3c(Cl)nc(N)nc32)c(C)c1
Heat shock protein HSP90 [1]
  IC50: 7.5 µM
Heat shock protein HSP90 [2]
  IC50: 4 µM

## COc1cc(Cn2cnc3c(C)nc(N)nc32)c(Cl)c(OC)c1OC
Heat shock protein HSP90 [1]
  IC50: 1.8 µM

## COc1cc(Cn2cnc3c(S)nc(N)nc32)c(Br)c(OC)c1OC
Heat shock protein HSP90 [1]
  IC50: 100 µM

## Cc1cnc(Cn2cnc3c(Cl)nc(N)nc32)c(C)c1C
MCF7
  IC50: 0.3 µM
BT-474
  IC50: 0.08 µM
Heat shock protein HSP90 [1]
  IC50: 0.042 µM
Heat shock protein HSP90 [2]
  IC50: 0.035 µM

## CSc1c(C)cnc(Cn2cnc3c(Cl)nc(N)nc32)c1C
HT-29
  IC50: 0.2 µM
MCF7
  IC50: 0.5 µM
BT-474
  IC50: 0.09 µM
RPTEC [3]
  IC50: 2.3 µM
RPTEC [4]
  selectivity index: 12
Heat shock protein HSP90 [1]
  IC50: 0.027 µM
RPTEC [5]
  selectivity index: 5
Heat shock protein HSP90 [2]
  IC50: 0.04 µM

## COc1ccc(OC)c(Cn2cnc3c(Cl)nc(N)nc32)c1
Heat shock protein HSP90 [1]
  IC50: 3 µM

## COc1cc(Cn2cnc3c(Cl)nc(N)nc32)cc(OC)c1OC
Heat shock protein HSP90 [1]
  IC50: 2 µM

## COc1cc(Cn2cnc3c(Cl)nc(N)nc32)c(Br)c(OC)c1OC
Heat shock protein HSP90 [1]
  IC50: 0.07 µM

## COc1cc(Cn2cnc3c(Br)nc(N)nc32)c(Br)c(OC)c1OC
Heat shock protein HSP90 [1]
  IC50: 0.055 µM

## COc1cc(Cn2cnc3c(N)nc(N)nc32)c(Br)c(OC)c1OC
Heat shock protein HSP90 [1]
  IC50: 17 µM

## Cc1cnc(Cn2cnc3c(Cl)nc(N)nc32)c(C)c1[S+](C)[O-] (stereo unspecified)
Heat shock protein HSP90 [1]
  IC50: > 10 µM
Heat shock protein HSP90 [2]
  IC50: 10 µM

## CCOc1c(C)cnc(Cn2cnc3c(Cl)nc(N)nc32)c1C
Heat shock protein HSP90 [1]
  IC50: 1.5 µM

## COc1c(C)c[n+]([O-])c(Cn2cnc3c(Cl)nc(N)nc32)c1C
MCF7
  IC50: 0.1 µM
BT-474
  IC50: 0.15 µM
Heat shock protein HSP90 [6]
  IC50: 0.8 µM
Heat shock protein HSP90 [1]
  IC50: 0.08 µM
Heat shock protein HSP90 [2]
  IC50: 0.03 µM

## Cc1cnc(Cn2cnc3c(Cl)nc(N)nc32)c(C)c1Cl
HT-29
  IC50: 0.5 µM
MCF7
  IC50: 0.1 µM
BT-474
  IC50: 0.3 µM
RPTEC [3]
  IC50: 5 µM
RPTEC [4]
  selectivity index: 10
Heat shock protein HSP90 [1]
  IC50: 0.035 µM
RPTEC [5]
  selectivity index: 50
Heat shock protein HSP90 [2]
  IC50: 0.01 µM

## Cc1cnc(Cn2cnc3c(Cl)nc(N)nc32)c(C)c1Br
Heat shock protein HSP90 [7]
  IC50: 0.8 µM
HT-29
  IC50: 0.13 µM
MCF7
  IC50: 0.03 µM
BT-474
  IC50: 0.05 µM
RPTEC [3]
  IC50: 1.3 µM
RPTEC [4]
  selectivity index: 10
Heat shock protein HSP90 [1]
  IC50: 0.015 µM
RPTEC [5]
  selectivity index: 43
Heat shock protein HSP90 [2]
  IC50: 0.002 µM
Heat shock protein HSP90 [8]
  IC50: 400 µM

## Cc1cnc(Cn2cnc3c(Cl)nc(N)nc32)c(C)c1O
Heat shock protein HSP90 [1]
  IC50: 100 µM

## Cc1cnc(Cn2cnc3c(Cl)nc(N)nc32)c(C)c1OC(C)C
Heat shock protein HSP90 [1]
  IC50: 1.5 µM

## COc1c(C)c(Cl)nc(Cn2cnc3c(Cl)nc(N)nc32)c1C
MCF7
  IC50: 0.5 µM
BT-474
  IC50: 0.5 µM
Heat shock protein HSP90 [1]
  IC50: 0.09 µM
Heat shock protein HSP90 [2]
  IC50: 0.025 µM

## COc1cc(Cn2cnc3c(Cl)nc(N)nc32)c(Cl)c(OC)c1OC
[9]
  solubility: < 1 µg/mL
Heat shock protein HSP90 [1]
  IC50: 0.05 µM

## COc1cc(Cn2cnc3c(Cl)nc(N)nc32)c(I)c(OC)c1OC
Heat shock protein HSP90 [1]
  IC50: 0.34 µM

## COc1cc(Cn2cnc3c(O)nc(N)nc32)c(Cl)c(OC)c1OC
Heat shock protein HSP90 [1]
  IC50: 0.7 µM

## COc1cc(Cn2cnc3cnc(N)nc32)c(Br)c(OC)c1OC
Heat shock protein HSP90 [1]
  IC50: 50 µM

## Cc1cnc(Cn2cnc3c(Cl)nc(N)nc32)c(C)c1I
Heat shock protein HSP90 [7]
  IC50: 1 µM
HT-29
  IC50: 0.023 µM
MCF7
  IC50: 0.03 µM
BT-474
  IC50: 0.03 µM
RPTEC [3]
  IC50: 0.15 µM
RPTEC [4]
  selectivity index: 7
Heat shock protein HSP90 [1]
  IC50: 0.009 µM
RPTEC [5]
  selectivity index: 5
Heat shock protein HSP90 [2]
  IC50: 0.003 µM
Heat shock protein HSP90 [8]
  IC50: 333 µM

## COc1cc(Cn2cnc3c(OC)nc(N)nc32)c(Br)c(OC)c1OC
Heat shock protein HSP90 [1]
  IC50: 45 µM

## COc1c(C)ncc(Cn2cnc3c(Cl)nc(N)nc32)c1C.Cl
[10]
  solubility: 186 µg/mL
MCF7
  IC50: 0.15 µM
Liver microsomes
  Stability: 83%
[11]
  solubility: 234 µg/mL
BT-474
  IC50: 0.05 µM
[12]
  AUC: 9000 ng·h/mL
[13]
  Cmax: 28200 ng/mL
[14]
  solubility: 451 µg/mL
Heat shock protein HSP90 [6]
  IC50: 0.9 µM
Heat shock protein HSP90 [1]
  IC50: 0.02 µM
[15]
  half-life: 54 min
NCI-N87 [16]
  inhibition in vivo at 60 mg/kg: 83%
Heat shock protein HSP90 [2]
  IC50: 0.018 µM
[17]
  Tmax: 6 min

## COc1c(C)cnc(Cn2cnc3c(Cl)nc(N)nc32)c1C.Cl
[10]
  solubility: 176 µg/mL
HT-29
  IC50: 0.13 µM
MCF7
  IC50: 0.1 µM
Liver microsomes
  Stability: 86%
[11]
  solubility: 87 µg/mL
BT-474
  IC50: 0.1 µM
[12]
  AUC: 4800 ng·h/mL
RPTEC [3]
  IC50: 0.6 µM
[13]
  Cmax: 10000 ng/mL
RPTEC [4]
  selectivity index: 5
[14]
  solubility: 240 µg/mL
RPTEC [5]
  selectivity index: 6
[15]
  half-life: 48 min
NCI-N87 [18]
  inhibition in vivo at 125 mg/kg: 87%
[17]
  Tmax: 6 min

## C=CCNC1=C2C[C@@H](C)C[C@H](OC)[C@H](O)[C@@H](C)/C=C(\C)[C@H](OC(N)=O)[C@@H](OC)/C=C\C=C(/C)C(=O)NC(=CC1=O)C2=O [TANESPIMYCIN]
HT-29
  IC50: 0.002 µM
MCF7
  IC50: 0.01 µM
NCI-N87 [19]
  inhibition in vivo at 90 mg/kg: 70%
BT-474
  IC50: 0.01 µM
RPTEC [3]
  IC50: 0.1 µM
